Assay results reported in patent US9232796B2, “Herbicidal compositions comprising 4-amino-3-chloro-5-fluoro-6-(4-chloro-2-fluoro-3-methoxyphenyl) pyridine-2-carboxylic acid or a derivative thereof and acetyl-CoA carboxylase (ACCase) inhibitors” (DOW AGROSCIENCES LLC, priority 2012, dated 2016).
Where “and” joins values, the source holds several entries; their conditions need not be identical. Equal values may be shown once.

Legend:
SCPJU = experiment: Example I postemergence foliar-applied, greenhouse, direct seeded rice weeds; assay type: in vivo, Schoenoplectus juncoides (Roxb.) Palla
Outline: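 Weeds grown in loam/sandy loam–calcareous grit (80:20) under greenhouse conditions (~14 h photoperiod, ~29/26 °C day/night) and treated at first to fourth true leaf stage. Compound A (acid or esters, SC) and ACCase-inhibiting herbicides, alone and combined, sprayed at 187 L/ha with 1.25% v/v crop oil concentrate. Injury rated visually (0–100%) after ~3 weeks; expected mixture effects by Colby's equation.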

ECHCG = experiment: Example V post-emergence field trials in direct-seeded rice; assay type: in vivo, Echinochloa crus-galli; details: foliar, field trial Greece
Experimental: (§1) Multiple field trials were conducted under commercial grower field conditions in Tolima, Colombia; Thessaloniki, Greece; Bianze and Copiano, Italy; and Humphrey, Ark., USA. Trials sites were located in commercially grown fields of direct-seeded rice (Oryza sativa) using standard herbicide small plot research methodology. Plots varied from 2 to 3 meter (m)×5 to 8 m (width×length) with 4 replicates per treatment. The rice crop was grown using normal cultural practices for fertilization, seeding, watering, flooding and maintenance to ensure good growth of the crop and the weeds.
(§2) All treatments in the field trials were applied using a backpack compressed air/gas sprayer with flat fan nozzles (80° or 110°) calibrated to apply 187 to 300 L/ha spray volume at approximately 200-400 kPa nozzle pressure. Commercially available products of cyhalofop-butyl (Clincher 180EC, Clincher 200EC, and Clincher SF (285 gr ai/L EC)) were mixed in water at appropriate formulated product rates to achieve the desired rates based on a unit area of application (hectare) to achieve the desired rates as shown. Treatments were rate at 19 to 58 days after application (DAA) as compared to the untreated control plants. Visual weed control was scored on a scale of 0 to 100 percent where 0 corresponds to no injury and 100 corresponds to complete kill. […]

ECHCO = experiment: as above; assay type: in vivo, Echinochloa colona; details: foliar, field trial Tolima, Colombia
Experimental: as §1, §2

IPOHE = experiment: Example V (second) postemergence foliar-applied ternary mixtures, greenhouse, direct seeded rice weeds; assay type: in vivo, Ipomoea hederacea Jacq.
Experimental: The treated plants and control plants were placed in a greenhouse as described above and watered by sub-irrigation to prevent wash-off of the test compounds. After approximately 3 weeks, the condition of the test plants as compared with that of the untreated plants was determined visually and scored on a scale of 0 to 100 percent where 0 corresponds to no injury or growth inhibition and 100 corresponds to complete kill.
Colby's equation was used to determine the herbicidal effects expected from the mixtures (Colby, S. R. 1967. Calculation of the synergistic and antagonistic response of herbicide combinations. Weeds 15:20-22.).
The following equation was used to calculate the expected activity of mixtures containing three active ingredients, A, B, and C: Expected=A+B+C−((A×B+A×C+B×C)/100)+(A×B×C/10000)

CYPIR = experiment: Example V post-emergence field trials in direct-seeded rice; assay type: in vivo, Cyperus iria; details: foliar, field trial Tolima, Colombia
Experimental: as §1, §2

COc1c(Cl)ccc(-c2nc(C(=O)O)c(Cl)c(N)c2F)c1F [Compound A Acid, 4-amino-3-chloro-6-(4-chloro-2-fluoro-3-methoxyphenyl)-5-fluoropyridine-2-carboxylic acid]
Visual Weed Control (%) - 20 DAA SCPJU Obs (SCPJU; 4.38 gae/ha): 60% and 70% | Visual Weed Control (%) - 22 DAA SCPJU Obs (SCPJU; 4.38 gae/ha): 60% | Visual Weed Control (%) - 20 DAA SCPJU Obs (SCPJU; 8.75 gae/ha): 95%

COc1c(Cl)ccc(-c2nc(C(=O)OCc3ccccc3)c(Cl)c(N)c2F)c1F [Compound A Benzyl Ester, benzyl ester of 4-amino-3-chloro-5-fluoro-6-(4-chloro-2-fluoro-3-methoxy-phenyl)pyridine-2-carboxylic acid]
Visual Weed Control (%) - 55-58 DAA ECHCG Obs (ECHCG; 24 gae/ha): 6% | Visual Weed Control (%) - 19 DAA ECHCO Obs (ECHCO; 12 gae/ha): 76% | Visual Weed Control (%) - 21 DAA IPOHE Obs (IPOHE; 2.19 gae/ha, upper sub-table): 30% | Visual Weed Control (%) - 21 DAA IPOHE Obs (IPOHE; 4.38 gae/ha, upper sub-table): 38% | Visual Weed Control (%) - 21 DAA IPOHE Obs (IPOHE; 8 ae/ha): 20% | Visual Weed Control (%) - 21 DAA IPOHE Obs (IPOHE; 8 gae/ha): 10% | Visual Weed Control (%) - 21 DAA IPOHE Obs (IPOHE; 8 gae/ha, lower sub-table): 15% | Visual Weed Control (%) - 21 DAA IPOHE Obs (IPOHE; 16 gae/ha): 30% | Visual Weed Control (%) - 21 DAA IPOHE Obs (IPOHE; 16 gae/ha, lower sub-table): 33% | Visual Weed Control (%) - 20 DAA SCPJU Obs (SCPJU; 4.38 gae/ha): 30% | Visual Weed Control (%) - 20 DAA SCPJU Obs (SCPJU; 8 gae/ha): 70% | Visual Weed Control (%) - 21 DAA SCPJU Obs (SCPJU; 8 gae/ha): 85% | Visual Weed Control (%) - 20 DAA SCPJU Obs (SCPJU; 8.75 gae/ha): 60% | Visual Weed Control (%) - 20 DAA SCPJU Obs (SCPJU; 16 gae/ha): 85% | Visual Weed Control (%) - 19 DAA CYPIR Obs (CYPIR; 12 gae/ha): 69%

CCCCOC(=O)[C@@H](C)Oc1ccc(Oc2ccc(C#N)cc2F)cc1 [Cyhalofop-butyl, butyl(2R)-2-[4-(4-cyano-2-fluorophenoxy)phenoxy]propanoate, reference compound]
Visual Weed Control (%) - 55-58 DAA ECHCG Obs (ECHCG; 300 gai/ha): 29% | Visual Weed Control (%) - 19 DAA ECHCO Obs (ECHCO; 280 gai/ha): 0% | Visual Weed Control (%) - 21 DAA IPOHE Obs (IPOHE; 17.5 gai/ha): 0% | Visual Weed Control (%) - 21 DAA IPOHE Obs (IPOHE; 35 gai/ha): 0% | Visual Weed Control (%) - 21 DAA IPOHE Obs (IPOHE; 35 gai/ha, lower sub-table): 0% | Visual Weed Control (%) - 21 DAA IPOHE Obs (IPOHE; 35 gai/ha, upper sub-table): 0% | Visual Weed Control (%) - 19 DAA CYPIR Obs (CYPIR; 280 gai/ha): 0%
